Assays:
[1] = Asymmetry and circling after unilateral administration into the extrapyramidal caudate-putamen (striatum) (test 7); format: in vivo, rat
Excerpt: 7. Effect on observed locomotor activity following direct administration into the extrapyramidal caudate-putamen (striatum). A test for anti-Parkinsonism potential.

MPTP-treated marmoset = MPTP-treated marmoset model of anti-Parkinson activity (test 10); format: in vivo
Excerpt: 10. MPTP-treated marmoset model. A test for anti-Parkinson activity.
(i) Parkinsonism-like motor deficits (hypokinesia and bradykinesia) were induced in marmosets by the intranigral infusion of 1-methyl-4-phenyl-1,2,3,6-tetrahydropyridine (MPTP) for 13 days via an implanted injection unit and osmotic minipump (Test 10). […] Drug assessments were begun after 7-10 days of infusion.

[2] = Rat spontaneous locomotor activity using photocell cages: measurement of stereotypy (test 5); format: in vivo
Excerpt: 5. Rat spontaneous locomotor activity using individual cages equipped with photocells: measurement of stereotypy.

[3] = Anxiolytic activity in the mouse using a black and white test box (test 9); format: in vivo
Excerpt: 9. Anxiolytic activity in the mouse using a black and white test box.

[4] = Mouse spontaneous locomotor activity using treadwheels (test 2); format: in vivo
Excerpt: 2. Mouse spontaneous locomotor activity using treadwheels.

[5] = Hyperactivity following direct administration into the mesolimbic nucleus accumbens of the rat (test 6); format: in vivo
Excerpt: 6. Measurement of hyperactivity following direct administration into the mesolimbic nucleus accumbens of the rat. An indicator of anti-depressant activity.
Enhancement of locomotor activity by amphetamine and other dopamine agonists is difficult to measure because it is complicated by the development of stereotypies. […] Direct action of a compound to cause hyperactivity following administration into the mesolimbic nucleus accumbens is considered to be indicative of anti-depressant activity.

[6] = Mouse spontaneous locomotor activity measuring climbing frame behaviour (test 3); format: in vivo
Excerpt: 3. Mouse spontaneous locomotor activity measuring climbing frame behaviour.

[7] = Measurement of stereotyped behaviour in the mouse (test 4); format: in vivo
Excerpt: 4. Measurement of stereotyped behaviour in the mouse.

[8] = Anti-depressant activity in the mouse using the Porsolt test (test 8); format: in vivo; details: mice
Excerpt: 8. Measurement of anti-depressant activity in the mouse using the `Porsolt Test`.

[9] = Mouse spontaneous locomotor activity using individual cages equipped with photocells (test 1); format: in vivo; details: for dose profile of effect on locomotor activity: 'in these tests' (locomotor tests 1-3), inhibition at low, stimulation at high dose
Excerpt: 1. Mouse spontaneous locomotor activity using individual cages equipped with photocells.

dopamine D1 receptors = experiment: Receptor binding studies using rat brain: dopamine D1
5HT1 receptors = experiment: Receptor binding studies using rat brain: 5HT1
[10] = 0.05 mg/kg s.c., mean n=4, P<0.05
[11] = 0.05 mg/kg s.c., mean of responding animals only
[12] = 0.1 mg/kg s.c., mean n=4, P<0.01
[13] = 1.0 mg/kg s.c., mean n=4, P<0.01
[14] = 10 μg injected directly into the mesolimbic nucleus accumbens
[15] = 0.1-1 mg/kg i.p., separate study

CCCN(CCC)CCc1cccc2c1CC(=O)N2.Cl [Compound A, 4-(2-di-n-propylaminoethyl)-2-(3H)-indolone hydrochloride]
asymmetry and circling behaviour ([1]; 0.01-10.0 μg unilaterally into caudate-putamen, statistically significant at 1.0 and 10.0 μg): marked contralateral asymmetry and circling behaviour | % time in head movements (MPTP-treated marmoset; 0.01 mg/kg s.c., mean n=4): 26% | % time spent in LMA (MPTP-treated marmoset; 0.01 mg/kg s.c., mean n=4): 4% | LMA (% control) (MPTP-treated marmoset; 0.01 mg/kg s.c., mean n=4): 26 % control | % time in head movements (MPTP-treated marmoset; [10]): 36% | % time spent in LMA (MPTP-treated marmoset; [10]): 12% | LMA (% control) (MPTP-treated marmoset; [10]): 47 % control | % time in head movements (MPTP-treated marmoset; [11]): 80% | % time spent in LMA (MPTP-treated marmoset; [11]): 23% | LMA (% control) (MPTP-treated marmoset; [11]): 70 % control | % time in head movements (MPTP-treated marmoset; [12]): 83% | % time spent in LMA (MPTP-treated marmoset; [12]): 29% | LMA (% control) (MPTP-treated marmoset; [12]): 93 % control | % time in head movements (MPTP-treated marmoset; [13]): 84% | % time spent in LMA (MPTP-treated marmoset; [13]): 28% | LMA (% control) (MPTP-treated marmoset; [13]): 103 % control | development of tolerance (MPTP-treated marmoset; 0.1, 1.0 mg/kg s.c. twice daily for 7 days): no development of tolerance | motor behaviour (MPTP-treated marmoset; MPTP marmosets, 0.05-1.0 mg/kg s.c., at 0.05 mg/kg 1 or 2 marmosets did not respond): fully restored normal motor behaviour | movements in the limbs, trunk, head and neck (MPTP-treated marmoset; MPTP marmosets, s.c., most marked effect): full restoration of normal movements | MPTP-induced motor deficits (MPTP-treated marmoset; oral, each of 0.1, 0.5 or 1.0 mg/kg, seven listed motor deficits): Partial reversal | response (MPTP-treated marmoset; oral, highest dose 1.0 mg/kg, n=3): supramaximal | response (MPTP-treated marmoset; oral, lowest dose 0.1 mg/kg, n=2): submaximal | emesis (MPTP-treated marmoset; oral, the two lower doses (0.1, 0.5 mg/kg)): No emesis | stereotypy ([2]; rat, 1.0, 10.0 and 100 mg/kg i.p., only periodic sniffing): no dose dependent stereotypies | spontaneous locomotion ([2]; rat, 10.0 and 100.0 mg/kg i.p., P<0.001): dose-related increases in spontaneous locomotion | duration of increase in spontaneous locomotion ([2]; rat, higher dose (100.0 mg/kg i.p.)): > 2.5 h | period in the black area ([3]; 0.1-10 mg/kg i.p.): correspondingly reduced period in the black area | time spent in the white section ([3]; 0.1-10 mg/kg i.p.): statistically significant increase in the time spent in the white section | locomotor activity ([4]; treadwheel test, 100 mg/kg, P<0.001): Stimulation of locomotor activity | spontaneous locomotor activity ([4]; treadwheels, 1.0 and 10.0 mg/kg i.p.): inhibition of spontaneous locomotor activity | spontaneous locomotion ([5]; 1.0 μg into the nucleus accumbens, tendency to inhibition in first 10 minutes): ineffective | spontaneous locomotion [5, 14]: marked (P<0.001) increase in spontaneous locomotion | locomotor activity ([6]; 100 mg/kg, no stimulation): original inhibition was reversed | spontaneous locomotor activity ([6]; 1.0 and 10.0 mg/kg i.p., statistically significant at 1.0 mg/kg): inhibition of spontaneous locomotor activity | stereotypy ([7]; mouse, 1.0, 10.0 and 100 mg/kg i.p., only periodic sniffing): no dose dependent stereotypies | anti-depressant activity ([8]; 0.1-10 mg/kg i/p.): statistically significant (P<0.05) anti-depressant activity | anti-depressant activity compared with amitriptyline ([8]; amitriptyline 2.4-40 mg/kg i.p.): greater than amitriptyline | spontaneous locomotor activity ([9]; photocell cages, 1.0 and 10.0 mg/kg i.p., statistically significant (P<0.01-0.001) at 10 mg/kg): inhibition of spontaneous locomotor activity | locomotor activity ([9]; photocell test, 100 mg/kg, P<0.001): Stimulation of locomotor activity

CCCN1C[C@H](CSC)C[C@@H]2c3cccc4[nH]cc(c34)C[C@H]21 [pergolide]
affinity for dopamine D1 receptors (dopamine D1 receptors): bound to dopamine D1 receptors | affinity for 5HT1 receptors (5HT1 receptors): showed affinity

N[C@@H](Cc1ccc(O)c(O)c1)C(=O)O [L-DOPA, reference compound]
MPTP-induced motor deficits (MPTP-treated marmoset; 12.5 mg/kg i.p. 30 min. pretreatment, after benserazide 12.5 mg/kg s.c. 90 min. pretreatment): restored MPTP-induced motor deficits | effectiveness compared with Compound A (MPTP-treated marmoset; L-DOPA 12.5 mg/kg i.p. after benserazide 12.5 mg/kg s.c., versus 0.1 mg/kg s.c. Compound A): less effective than 0.1 mg/kg s.c. Compound A

CC(N)Cc1ccccc1 (stereo not drawn) [amphetamine, reference compound]
asymmetry and circling behaviour ([1]; up to 100 μg unilaterally into caudate-putamen): inactive | stereotypy ([2]; rat, doses up to 10.0 mg/kg i.p., continuous biting, gnawing and licking): marked stereotyped behaviour | spontaneous locomotion [5, 14]: equally effective | stereotypy ([7]; mouse, doses up to 10.0 mg/kg i.p., continuous biting, gnawing and licking): marked stereotyped behaviour | dose profile of effect on locomotor activity [9]: biphasic activity

CC(C)C[C@H]1C(=O)N2CCC[C@H]2[C@]2(O)O[C@](NC(=O)[C@@H]3C=C4c5cccc6[nH]c(Br)c(c56)C[C@H]4N(C)C3)(C(C)C)C(=O)N12 [bromocriptine, reference compound]
MPTP-induced motor deficits (MPTP-treated marmoset; 0.1 mg/kg s.c.): little effect | investigatory activity in the black area [3, 15]: statistically significant increase in investigatory activity in the black area | light aversion [3, 15]: no change in the light aversion | affinity for 5HT1 receptors (5HT1 receptors): showed affinity | swimming time ([8]; 0.1-1 mg/kg i.p., effect at the higher dose): statistically significant reduction in swimming time

CN1CCc2cccc3c2[C@H]1Cc1ccc(O)c(O)c1-3 [apomorphine, reference compound]
asymmetry and circling behaviour ([1]; up to 50 μg unilaterally into caudate-putamen): inactive | stereotypy ([2]; rat, 2.0 mg/kg s.c., continuous biting, gnawing and licking): marked stereotyped behaviour | stereotypy ([7]; mouse, 2.0 mg/kg s.c., continuous biting, gnawing and licking): marked stereotyped behaviour | dose profile of effect on locomotor activity [9]: biphasic activity

Source: patent US4824860A, “Treatment of Parkinsons disease” (priority 1987, dated 1989)
